Reference: patent EP4635500A1, “THERAPEUTIC AGENT FOR BACTERIAL INFECTION” (Sumitomo Pharma Co., Ltd., priority 2022, dated 2024)
Converted amounts (≈) assume the structure as drawn. Read-outs that look alike come from different tables or passages of the source.

Test system: Enterobacterales
Test: MIC, broth microdilution, CDC/FDA Antibiotic Resistance Isolate Bank (Example 7, Tables 8, 11, 12)
Format: cell-based

## CC(C)(O/N=C(\C(=O)N[C@@H]1C(=O)N2C(C(=O)[O-])=C(C[N+]3(CCNC(=O)c4ccc(O)c(O)c4Cl)CCCC3)CS[C@H]12)c1csc(N)n1)C(=O)O [Cefiderocol, cefiderocol]
Escherichia coli, KUB No. 5769, AR Bank # 373, read-out: MIC
  MIC: ≤ 0.06 µg/mL
Escherichia coli, KUB No. 5770, AR Bank # 374, read-out: MIC
  MIC: < 0.06 µg/mL
Escherichia coli, KUB No. 5774, AR Bank # 378, read-out: MIC
  MIC: 0.12 µg/mL (≈ 0.16 µM)
Escherichia coli, KUB No. 5779, AR Bank # 433, read-out: MIC
  MIC: 0.5 µg/mL (≈ 0.665 µM)
Escherichia coli, KUB No. 5780, AR Bank # 434, read-out: MIC
  MIC: 0.5 µg/mL (≈ 0.665 µM)
Escherichia coli, KUB No. 5781, AR Bank # 435, read-out: MIC
  MIC: 4 µg/mL (≈ 5.32 µM)
Escherichia, KUB No. 57, AR Bank # 436 (row cut off)
  MIC: ≤0.0 µg/mL
Klebsiella aerogenes, Enterobacter aerogenes, KUB No. 5559, AR Bank # 62, read-out: MIC
  MIC: ≤ 0.06 µg/mL
Klebsiella aerogenes, Enterobacter aerogenes, KUB No. 5571, AR Bank # 74, read-out: MIC
  MIC: ≤ 0.06 µg/mL
Klebsiella aerogenes, Enterobacter aerogenes, KUB No. 5658, AR Bank # 161, read-out: MIC
  MIC: 1 µg/mL (≈ 1.33 µM)
Klebsiella aerogenes, Enterobacter aerogenes, KUB No. 5777, AR Bank # 431, read-out: MIC
  MIC: 1 µg/mL (≈ 1.33 µM)
Klebsiella oxytoca, KUB No. 5568, AR Bank # 71, read-out: MIC
  MIC: ≤ 0.06 µg/mL
Klebsiella oxytoca, KUB No. 5644, AR Bank # 147, read-out: MIC
  MIC: 0.12 µg/mL (≈ 0.16 µM)
Klebsiella oxytoca, KUB No. 5771, AR Bank # 375, read-out: MIC
  MIC: 0.5 µg/mL (≈ 0.665 µM)
Klebsiella oxytoca, KUB No. 5776, AR Bank # 380, read-out: MIC
  MIC: ≤ 0.06 µg/mL
Klebsiella ozaenae, KUB No. 5593, AR Bank # 96, read-out: MIC
  MIC: ≤ 0.06 µg/mL
Klebsiella pnemnonine, KUB No. 5758, AR Bank # 362, read-out: MIC
  MIC: 0.5 µg/mL (≈ 0.665 µM)
Klebsiella pneumoniae, KUB No. 5531, AR Bank# 34, read-out: MIC
  MIC: 0.25 µg/mL (≈ 0.332 µM)
Klebsiella pneumoniae, KUB No. 5536, AR Bank# 39, read-out: MIC
  MIC: 0.12 µg/mL (≈ 0.16 µM)
Klebsiella pneumoniae, KUB No. 5537, AR Bank# 40, read-out: MIC
  MIC: 0.5 µg/mL (≈ 0.665 µM)
Klebsiella pneumoniae, KUB No. 5538, AR Bank# 41, read-out: MIC
  MIC: 2 µg/mL (≈ 2.66 µM)
Klebsiella pneumoniae, KUB No. 5540, AR Bank# 43, read-out: MIC
  MIC: 0.25 µg/mL (≈ 0.332 µM)
Klebsiella pneumoniae, KUB No. 5541, AR Bank# 44, read-out: MIC
  MIC: 0.5 µg/mL (≈ 0.665 µM)
Klebsiella pneumoniae, KUB No. 5543, AR Bank# 46, read-out: MIC
  MIC: 0.25 µg/mL (≈ 0.332 µM)
Klebsiella pneumoniae, KUB No. 5546, AR Bank# 49, read-out: MIC
  MIC: 1 µg/mL (≈ 1.33 µM)
Klebsiella pneumoniae, KUB No. 5563, AR Bank # 66, read-out: MIC
  MIC: 0.5 µg/mL (≈ 0.665 µM)
Klebsiella pneumoniae, KUB No. 5565, AR Bank # 68, read-out: MIC
  MIC: 2 µg/mL (≈ 2.66 µM)
Klebsiella pneumoniae, KUB No. 5572, AR Bank # 75, read-out: MIC
  MIC: 0.25 µg/mL (≈ 0.332 µM)
Klebsiella pneumoniae, KUB No. 5573, AR Bank # 76, read-out: MIC
  MIC: ≤ 0.06 µg/mL
Klebsiella pneumoniae, KUB No. 5576, AR Bank # 79, read-out: MIC
  MIC: 0.12 µg/mL (≈ 0.16 µM)
Klebsiella pneumoniae, KUB No. 5577, AR Bank # 80, read-out: MIC
  MIC: 2 µg/mL (≈ 2.66 µM)
Klebsiella pneumoniae, KUB No. 5584, AR Bank # 87, read-out: MIC
  MIC: 1 µg/mL (≈ 1.33 µM)
Klebsiella pneumoniae, KUB No. 5594, AR Bank # 97, read-out: MIC
  MIC: 1 µg/mL (≈ 1.33 µM)
Klebsiella pneumoniae, KUB No. 5595, AR Bank # 98, read-out: MIC
  MIC: 0.12 µg/mL (≈ 0.16 µM)
Klebsiella pneumoniae, KUB No. 5603, AR Bank # 106, read-out: MIC
  MIC: 1 µg/mL (≈ 1.33 µM)
Klebsiella pneumoniae, KUB No. 5604, AR Bank # 107, read-out: MIC
  MIC: ≤ 0.06 µg/mL
Klebsiella pneumoniae, KUB No. 5606, AR Bank # 109, read-out: MIC
  MIC: 0.5 µg/mL (≈ 0.665 µM)
Klebsiella pneumoniae, KUB No. 5609, AR Bank # 112, read-out: MIC
  MIC: 2 µg/mL (≈ 2.66 µM)
Klebsiella pneumoniae, KUB No. 5610, AR Bank # 113, read-out: MIC
  MIC: 0.5 µg/mL (≈ 0.665 µM)
Klebsiella pneumoniae, KUB No. 5612, AR Bank # 115, read-out: MIC
  MIC: 0.5 µg/mL (≈ 0.665 µM)
Klebsiella pneumoniae, KUB No. 5614, AR Bank # 117, read-out: MIC
  MIC: 2 µg/mL (≈ 2.66 µM)
Klebsiella pneumoniae, KUB No. 5617, AR Bank # 120, read-out: MIC
  MIC: 0.25 µg/mL (≈ 0.332 µM)
Klebsiella pneumoniae, KUB No. 5622, AR Bank # 125, read-out: MIC
  MIC: 1 µg/mL (≈ 1.33 µM)
Klebsiella pneumoniae, KUB No. 5623, AR Bank # 126, read-out: MIC
  MIC: ≤ 0.06 µg/mL
Klebsiella pneumoniae, KUB No. 5626, AR Bank # 129, read-out: MIC
  MIC: 1 µg/mL (≈ 1.33 µM)
Klebsiella pneumoniae, KUB No. 5632, AR Bank # 135, read-out: MIC
  MIC: 1 µg/mL (≈ 1.33 µM)
Klebsiella pneumoniae, KUB No. 5635, AR Bank # 138, read-out: MIC
  MIC: 1 µg/mL (≈ 1.33 µM)
Klebsiella pneumoniae, KUB No. 5636, AR Bank # 139, read-out: MIC
  MIC: 0.12 µg/mL (≈ 0.16 µM)
Klebsiella pneumoniae, KUB No. 5637, AR Bank # 140, read-out: MIC
  MIC: 0.12 µg/mL (≈ 0.16 µM)
Klebsiella pneumoniae, KUB No. 5638, AR Bank # 141, read-out: MIC
  MIC: ≤ 0.06 µg/mL
Klebsiella pneumoniae, KUB No. 5639, AR Bank # 142, read-out: MIC
  MIC: < 0.06 µg/mL
Klebsiella pneumoniae, KUB No. 5640, AR Bank # 143, read-out: MIC
  MIC: 1 µg/mL (≈ 1.33 µM)
Klebsiella pneumoniae, KUB No. 5642, AR Bank # 145, read-out: MIC
  MIC: 0.25 µg/mL (≈ 0.332 µM)
